solubility, fold induction and melting point data for 14 compounds are collected here from patent US10570117B2, “Phenylimidazole compound” (Otsuka Pharmaceutical Factory, Inc., priority 2015, dated 2020).

A short description of series [1]: Solubility in gastric juice or intestinal juice model fluid (precipitation method using DMSO). To be noted: room temperature. Format: physicochemical. A digest of the protocol:
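Compound in DMSO added to JP disintegration test fluid 1 (pH 1.2) or fluid 2 (pH 6.8) and shaken 24 h at room temperature. After filtration, dissolved concentration (μg/mL) determined by UV absorbance against compound calibration curves.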

The subject of series [2] is lipoprotein lipase (LPL) gene. Description: LPL mRNA elevating action (RT-PCR quantification of LPL mRNA in C2Cl2 cells). Format: cell-based, mouse. To be noted: Mus musculus, 24 h, compound 10 μM, ratio relative to the amount of LPL mRNA in cells with DMSO only, read-out: Rate of increase in LPL mRNA. A digest of the protocol: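 Mouse striated-muscle C2Cl2 cells in DMEM with 10% FBS exposed to compounds at 10 μM for 24 h. LPL mRNA quantified by RT-PCR and real-time PCR (20 cycles), expressed as ratio to DMSO-only cells set at 1.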

Where [3] appears, read: pH 1.2, simulated gastric fluid, kinetic from dmso stock, 1st fluid for Disintegration Test of Japanese Pharmacopoeia (pH: 1.2), read-out: Solubility (μg/mL) 1st fluid.
Setting [4] is: pH 6.8, kinetic from dmso stock, 2nd fluid for Disintegration Test of Japanese Pharmacopoeia (pH: 6.8), read-out: Solubility (μg/mL) 2nd fluid.

Converted amounts (≈) assume the structure as drawn. Where two headings read alike, the source gives them in different places.

For orientation: melting point means the temperature, or range, at which the solid turns liquid. Turning to `COc1cc(OCc2ncc(C(F)(F)F)cc2F)ccc1-c1cnc(C2CC(F)(F)C2)[nH]1` [Example 349], the melting point lay within 70 to 75 °C. The solubility at 24 h in series [1] (setting [3]) was 83.6 µg/mL (≈ 183 µM). In series [1] (setting [4]), the solubility at 24 h is 10.8 µg/mL (≈ 23.6 µM). The fold induction at 10 µM in series [2] amounted to 2.2.

For `Cc1cc(O)ccc1-c1cnc(-c2ccc(F)nc2)[nH]1` [Example 350], the melting point was 218 to 220 °C. Moreover, in series [1] (setting [3]), the solubility at 24 h was 53.3 µg/mL (≈ 198 µM). In series [1] (setting [4]), the solubility at 24 h amounted to 51 µg/mL (≈ 189 µM). In series [2], the fold induction at 10 µM was 1.38.

In turn, `Cc1cc(OCc2ncc(C(F)(F)F)cc2F)ccc1-c1cnc(-c2ccc(F)nc2)[nH]1` [Example 351] gave a melting point of 216 to 222 °C. Besides, in series [1] (setting [3]), the solubility at 24 h is 85.9 µg/mL (≈ 192 µM). Further, the solubility at 24 h in series [1] (setting [4]) is 7 µg/mL (≈ 15.7 µM). For the same compound, the fold induction at 10 µM in series [2] came out at 4.12.

`Cc1cc(OCc2ncc(C(F)(F)F)cc2F)ccc1-c1[nH]c(-c2ccc(F)nc2)nc1Cl` [Example 352] showed a melting point of 204 to 206 °C. Besides, the solubility at 24 h in series [1] (setting [3]) was 9.8 µg/mL (≈ 20.4 µM). The solubility at 24 h in series [1] (setting [4]) amounted to 6 µg/mL (≈ 12.5 µM). Moreover, the fold induction at 10 µM in series [2] came out at 5.48.

Compound `COc1cc(OCc2ncc(C(F)(F)F)cc2F)ccc1-c1[nH]c(C2CC(F)(F)C2)nc1Cl` [Example 353] showed a melting point of 167 to 169 °C. The solubility at 24 h in series [1] (setting [3]) is 85.4 µg/mL (≈ 174 µM). Also, in series [1] (setting [4]), the solubility at 24 h amounted to 0.5 µg/mL (≈ 1.02 µM). In addition, the fold induction at 10 µM in series [2] was found to be 4.08.

`COc1cc(-c2[nH]c(C3CC(F)(F)C3)nc2Cl)ccc1OCc1ncc(C(F)(F)F)cc1F` [Example 354]: the melting point lay in the range of 159 to 161 °C. For the same compound, the solubility at 24 h in series [1] (setting [3]) was 38.8 µg/mL (≈ 78.9 µM). For the same compound, the solubility at 24 h in series [1] (setting [4]) worked out at 1.1 µg/mL (≈ 2.24 µM). The fold induction at 10 µM in series [2] worked out at 4.44.

`Fc1ccc(-c2nc(Cl)c(-c3ccc(OCc4ncc(C(F)(F)F)cc4F)cc3)[nH]2)cn1` [Example 355] came in with a melting point of 180 to 183 °C. Further, in series [1] (setting [3]), the solubility at 24 h is less than 0.3 µg/mL. Besides, the solubility at 24 h in series [1] (setting [4]) was less than 0.3 µg/mL. Besides, the fold induction at 10 µM in series [2] was 3.59.

`CCSc1ccc(-c2ncc(-c3ccc(OCc4ncc(C(F)(F)F)cc4F)cc3OC)[nH]2)cn1` [Example 357] yielded a melting point of 145 to 149 °C. In series [1] (setting [3]), the solubility at 24 h was 7.8 µg/mL (≈ 15.5 µM). The solubility at 24 h in series [1] (setting [4]) is less than 0.3 µg/mL. Further, the fold induction at 10 µM in series [2] was 3.59.

`CCSc1ccc(-c2nc(Cl)c(-c3ccc(OCc4ccc(C(F)(F)F)nc4)cc3OC)[nH]2)cn1` [Example 358] had a melting point of 160 to 163 °C. In addition, the solubility at 24 h in series [1] (setting [3]) was 1.6 µg/mL (≈ 3.07 µM). Also, the solubility at 24 h in series [1] (setting [4]) is less than 0.4 µg/mL. Besides, the fold induction at 10 µM in series [2] turned out to be 4.18.

Turning to `Oc1ccc(-c2cnc(-c3ccc(F)nc3)[nH]2)c(Cl)c1` [Example 359], the melting point lay within 223 to 225 °C. Besides, the solubility at 24 h in series [1] (setting [3]) is 57.3 µg/mL (≈ 198 µM). In addition, the solubility at 24 h in series [1] (setting [4]) is 52.8 µg/mL (≈ 182 µM). Besides, in series [2], the fold induction at 10 µM came out at 1.75.

Take `Fc1ccc(-c2ncc(-c3ccc(OCc4ncc(C(F)(F)F)cc4F)cc3Cl)[nH]2)cn1` [Example 360]: the melting point was 169 to 171 °C. Also, the solubility at 24 h in series [1] (setting [3]) is 90.7 µg/mL (≈ 194 µM). Besides, the solubility at 24 h in series [1] (setting [4]) came out at 0.6 µg/mL (≈ 1.29 µM). For the same compound, the fold induction at 10 µM in series [2] turned out to be 3.93.

Take `Fc1ccc(-c2nc(Cl)c(-c3ccc(OCc4ncc(C(F)(F)F)cc4F)cc3Cl)[nH]2)cn1` [Example 361]: the melting point fell in the range of 158 to 160 °C. The solubility at 24 h in series [1] (setting [3]) is 3.4 µg/mL (≈ 6.78 µM). In series [1] (setting [4]), the solubility at 24 h was less than 0.4 µg/mL. The fold induction at 10 µM in series [2] came to 5.51.

The compound `CCc1cc(OCc2ncc(C(F)(F)F)cc2F)ccc1-c1cnc(-c2ccc(F)nc2)[nH]1` [Example 363] came in with a melting point of 115 to 117 °C. The solubility at 24 h in series [1] (setting [3]) was 104 µg/mL (≈ 225 µM). Moreover, the solubility at 24 h in series [1] (setting [4]) was found to be 6.9 µg/mL (≈ 15 µM). In addition, the fold induction at 10 µM in series [2] was found to be 2.78.

`CCc1cc(OCc2ncc(C(F)(F)F)cc2F)ccc1-c1[nH]c(-c2ccc(F)nc2)nc1Cl` [Example 364] had a melting point of 187 to 188 °C. The solubility at 24 h in series [1] (setting [3]) is less than 0.4 µg/mL. Further, in series [1] (setting [4]), the solubility at 24 h was less than 0.4 µg/mL. The fold induction at 10 µM in series [2] was found to be 2.65.
